# US20260297542A1, “HERBICIDE RESISTANT PLANTS” (SYNGENTA CROP PROTECTION AG, priority 2023, published 2026)
# Residue numbers refer to the chain shown, from its start.
# Legend:
# Test in all cases: E. coli hemG growth inhibition by herbicide, AtPPO1 variant
# Type in all cases: cell-based
# Conditions in all cases: read-out: percentage growth inhibition
# [1] = target: T1, AtPPO1 D448L (Arabidopsis thaliana, UniProt P55826, D448L)
# T1 construct: expressed in transfected cells; host or cells: E. coli BL21(DE3) hemG, pET24a plasmid
# T1 sequence (P55826 35-537 D448L): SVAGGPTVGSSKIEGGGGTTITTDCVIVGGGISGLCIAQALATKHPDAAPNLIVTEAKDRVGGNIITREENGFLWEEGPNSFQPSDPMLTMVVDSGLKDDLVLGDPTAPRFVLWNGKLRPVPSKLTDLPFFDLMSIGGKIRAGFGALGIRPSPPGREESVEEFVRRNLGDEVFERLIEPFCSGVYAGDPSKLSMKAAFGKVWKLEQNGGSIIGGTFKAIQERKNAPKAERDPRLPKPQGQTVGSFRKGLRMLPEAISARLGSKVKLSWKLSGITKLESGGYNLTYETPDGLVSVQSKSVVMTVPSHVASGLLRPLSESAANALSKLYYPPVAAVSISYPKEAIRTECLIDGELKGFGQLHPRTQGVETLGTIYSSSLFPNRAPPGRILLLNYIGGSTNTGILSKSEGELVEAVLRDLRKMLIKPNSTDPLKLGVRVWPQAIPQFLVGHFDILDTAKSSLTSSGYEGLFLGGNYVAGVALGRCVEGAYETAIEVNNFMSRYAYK
# Method in brief: (§1)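 AtPPO1 variants from a site-saturation library, codon-optimised and T7-driven in pET24a, were expressed in E. coli BL21(DE3) lacking hemG (hemG replaced by CmR). Growth in Terrific broth with 0.1 mM IPTG plus 6.25 ppm herbicide 0 or E, 0.78 ppm herbicide B, or DMSO was read as OD600 after 24 h at 37° C; inhibition was calculated against the DMSO culture.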
# [2] = target: T2, AtPPO1 F478R (Arabidopsis thaliana, UniProt P55826, F478R)
# T2 construct: expressed in transfected cells; host or cells: E. coli BL21(DE3) hemG, pET24a plasmid
# T2 sequence (P55826 35-537 F478R): T1 sequence (P55826 35-537 D448L) with L414D, F444R
# Method in brief: as §1
# [3] = target: T3, AtPPO1 T431R (Arabidopsis thaliana, UniProt P55826, T431R)
# T3 construct: expressed in transfected cells; host or cells: E. coli BL21(DE3) hemG (pET24a, T7 promoter)
# T3 sequence (P55826 35-537 T431R): T1 sequence (P55826 35-537 D448L) with T397R, L414D
# Method in brief: as §1
# [4] = target: T4, AtPPO1 Y362F (Arabidopsis thaliana, UniProt P55826, Y362F)
# T4 construct: expressed in transfected cells; host or cells: E. coli BL21(DE3) hemG (pET24a, T7 promoter)
# T4 sequence (P55826 35-537 Y362F): T1 sequence (P55826 35-537 D448L) with Y328F, L414D
# Method in brief: as §1
structure (smiles),measurement,setting,value
"C#CCN1C(=O)C(F)(F)Oc2cc(F)c(-n3c(=O)n(C)c(=S)n(C)c3=O)cc21 [Herbicide B, trifludimoxazin]",inhibition at 0.78 ppm,[1],38%
same,inhibition at 0.78 ppm,[2],23%
same,inhibition at 0.78 ppm,[3],25%
same,inhibition at 0.78 ppm,[4],34%
"CCOC(=O)[C@]1(C)CC(c2cc(-n3c(=O)n(C)c(=S)n(C)c3=O)c(F)cc2Cl)=NO1 [Herbicide D, ethyl (5S)-3-[2-chloro-5-(3,5-dimethyl-2,6-dioxo-4-thioxo-1,3,5-triazinan-1-yl)-4-fluoro-phenyl]-5-methyl-4H-isoxazole-5-carboxylate]",inhibition at 6.25 ppm,[1],38%
same,inhibition at 6.25 ppm,[2],30%
same,inhibition at 6.25 ppm,[3],28%
same,inhibition at 6.25 ppm,[4],13%
"CC(C)N(C)S(=O)(=O)NC(=O)c1cc(-n2c(=O)cc(C(F)(F)F)n(C)c2=O)c(F)cc1Cl [Herbicide E, saflufenacil]",inhibition at 6.25 ppm,[1],54%
same,inhibition at 6.25 ppm,[2],61%
same,inhibition at 6.25 ppm,[3],56%
same,inhibition at 6.25 ppm,[4],43%
